Drawing on US20250270190A1, “KIT INHIBITORS” (BLUEPRINT MEDICINES CORPORATION, priority 2022, published 2025), this text covers IC50 for 22 molecules.

Structures are written as SMILES. A value given as a limit tells only on which side of the number the result lay.

This experiment deals with T1, c-kit autophosphorylation (Phospho c-Kit Tyr721) in HMC 1.1 (exon 11/13) cells, V654A (Homo sapiens, UniProt P10721, V560G/V654A).
T1 construct: endogenous in cells; host or cells: HMC 1.1 (exon 11/13) cells
T1 sequence (P10721 26-976 V560G/V654A): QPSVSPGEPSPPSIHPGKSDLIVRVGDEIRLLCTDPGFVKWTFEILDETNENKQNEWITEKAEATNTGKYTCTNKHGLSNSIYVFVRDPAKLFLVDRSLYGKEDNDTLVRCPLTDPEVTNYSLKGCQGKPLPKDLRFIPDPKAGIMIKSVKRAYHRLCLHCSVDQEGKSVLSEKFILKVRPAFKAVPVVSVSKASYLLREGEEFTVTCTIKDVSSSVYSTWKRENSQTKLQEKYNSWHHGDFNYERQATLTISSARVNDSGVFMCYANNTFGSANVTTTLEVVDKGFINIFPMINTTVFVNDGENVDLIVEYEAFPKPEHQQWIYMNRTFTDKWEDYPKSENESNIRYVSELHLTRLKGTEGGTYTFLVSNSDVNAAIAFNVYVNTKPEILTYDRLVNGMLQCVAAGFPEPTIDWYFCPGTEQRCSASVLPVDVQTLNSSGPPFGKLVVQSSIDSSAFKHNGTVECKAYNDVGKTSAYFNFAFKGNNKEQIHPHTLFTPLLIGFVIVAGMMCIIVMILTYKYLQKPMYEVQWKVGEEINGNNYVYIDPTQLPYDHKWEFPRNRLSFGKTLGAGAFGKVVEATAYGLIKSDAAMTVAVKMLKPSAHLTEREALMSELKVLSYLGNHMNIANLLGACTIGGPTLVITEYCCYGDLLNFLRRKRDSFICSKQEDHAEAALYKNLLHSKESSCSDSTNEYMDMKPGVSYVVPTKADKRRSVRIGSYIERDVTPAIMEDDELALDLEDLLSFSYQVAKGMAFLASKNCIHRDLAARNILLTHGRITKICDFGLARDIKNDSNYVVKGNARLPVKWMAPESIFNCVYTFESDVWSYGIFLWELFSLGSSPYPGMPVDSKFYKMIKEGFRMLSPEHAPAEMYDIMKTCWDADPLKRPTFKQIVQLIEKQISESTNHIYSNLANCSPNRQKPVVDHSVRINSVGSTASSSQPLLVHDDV
The experiment can be described thus: pKIT Meso Scale Discovery (MSD) assay, inhibition of autophosphorylation of KIT, HMC1.1_V654A. The experiment is classed as cell-based. The following applies: Table 1, cell line not named for Table 1, b1056 names pKIT HMC1.1_V654A, read-out: Code (IC50 for inhibition of autophosphorylation of KIT, pKIT MSD assay). The source says: In this MSD assay, specific capture antibodies for the analytes were coated in arrays in each well of a 96-well carbon electrode plate surface. The detection system used SULFO-TAG™ labels that emit light upon electrochemical stimulation initiated at the electrode surfaces of the […] and MULTI-SPOT® plates. The electrical stimulation was decoupled from the output signal, which was light and generated assays with minimal background. The goal of this assay was to assess the percent inhibition of autophosphorylation of c-kit in cells when treated with compounds of the disclosure in a dose-dependent manner.
HMC1.1 cells were maintained in IMDM media supplemented with 20% Calf Serum with Iron and 100 units/mL Penicillin-Streptomycin and grown in a 37° C. humidified tissue culture incubator. HMC1.1 cells were passaged by 1:5 dilution into fresh IMDM media supplemented with 20% Calf Serum with Iron and 100 units/mL Penicillin-Streptomycin every 5-7 days and were discarded after 20 passages.
Seeding was performed as follows: HMC cells were brought to 1×10^6 cells/mL in fresh phenol red free, serum-free, iron-free IDM media with Pen/Strep; cells were seeded/plated into respective U-bottom plate by dispensing 50 μL/well (50,000 cells) using the Multidrop, and covered and incubated cells at 37° C. in a humidified tissue culture incubator for 4 hours (starvation).
Dosing was performed as follows: The compound mother plate was prepared by adding 16 μL of compound to 24 μL of DMSO to row A, odd-numbered columns of screen matrix plate. […] Intermediate plates were prepared in V-bottom plates by dispensing 98 μL of phenol red free, serum free IMDM media with Pen/Strep into all wells. 2 μL DMSO or 2 μL 10 mM staurosporine was added to appropriate control wells. At the end of four hours, the Bravo protocol 10 cpds vertical dose MSD 2 U-plates 96-well was used to: add 2 μL from the compound plate to the intermediate plate and dose cells with 7 μL from the intermediate plate. The cells were covered and incubated at 37° C. in a humidified tissue culture incubator for 90 min. The complete lysis buffer was prepared with AlphaLISA 5× Lysis Buffer supplemented with 1× protease inhibitor cocktail and kept on ice. The cells were pelleted by centrifuging plate at 2500×g for 5 min, 4° C. and media removed. Complete lysis buffer was added (14 μL/well). The cells were covered and shaken at 4° C. on a plate shaker at 600 rpm for 30 min and kept cold
The MSD protocol was preformed as follows: Tris Wash Buffer (2L) was prepared by diluting 10× stock of Tris Wash Buffer to 1× in water. Blocking Solution was prepared by dissolving 600 mg Blocker A in 20 mL 1× Trish Wash Buffer (per plate). The Antibody Dilution Buffer was prepared by mixing 1 mL Blocking solution and 2 mL 1× Trish Wash Buffer (per plate) and kept on ice. Blocking Solution was added (150 μL/well) to each MSD plate using a multichannel repeater pipette. The plate was covered and incubated at room temperature on a plate shaker at 700 rpm for hr. The Bio Tek protocol RL-96w-wash-MSD_stacker_fromC was used to wash plates 3× with 150 μL/well. Cells were pelleted by centrifuging lysate plates at 2500×g for 5 mins. The Bravo protocol was used (transfer 25 ul supernatants from V-96 to assay plate) to transfer 25 μL sample lysate per well to each MSD plate. The plates were covered and incubated at room temperature on a plate shaker at 700 rpm for hr. The Bio Tek protocol RL-96w-wash-MSD_stacker_fromC was used to wash plates 3× with 150 μL/well. The Detection Antibody Solution was prepared by diluting the 60 μL of the 50× antibody stock in 2.94 mL of the Antibody Dilution Buffer (per plate) and kept on ice. 25 μL/well of detection antibody solution was added to each MSD plate. The plates were covered and incubated at room temperature on a plate shaker at 700 rpm for 1 hr. The Read Buffer was prepared by diluting 5 mL of 4× stock of Read Buffer to 1× in 15 mL water (per plate).
For the molecule `CN1CCC(n2cc(-c3cnc(Nc4cc(N)nc(C(F)F)n4)cc3OC(F)F)cn2)C1` (stereo not shown) [Compound 192, N4-(4-(difluoromethoxy)-5-(1-(1-methylpyrrolidin-3-yl)-1H-pyrazol-4-yl)pyridin-2-yl)-2-(difluoromethyl)pyrimidine-4,6-diamine], the IC50 was less than 0.01 µM. With `Nc1cc(Nc2cc(OC3CC3)c(-c3cnn([C@@H]4CCNC4)c3)cn2)nc(C(F)F)n1` (single isomer, unassigned) [Compound 160, (R)-N4-(4-cyclopropoxy-5-(1-(pyrrolidin-3-yl)-1H-pyrazol-4-yl)pyridin-2-yl)-2-(difluoromethyl)pyrimidine-4,6-diamine or (S)-N4-(4-cyclopropoxy-5-(1-(pyrrolidin-3-yl)-1H-pyrazol-4-yl)pyridin-2-yl)-2-(difluoromethyl)pyrimidine-4,6-diamine] the figure was less than 0.01 µM; with `COc1cc(Nc2cc(N)nc(C(F)F)n2)ncc1-c1cnn(C2COC2)c1` [Compound 78, 2-(difluoromethyl)-N4-(4-methoxy-5-(1-(oxetan-3-yl)-1H-pyrazol-4-yl)pyridin-2-yl)pyrimidine-4,6-diamine], less than 0.01 µM; with `Nc1cc(Nc2cc(OC3CC3)c(-c3cnn(C4CNC4)c3)cn2)nc(C(F)F)n1` [Compound 130, N4-(5-(1-(azetidin-3-yl)-1H-pyrazol-4-yl)-4-cyclopropoxypyridin-2-yl)-2-(difluoromethyl)pyrimidine-4,6-diamine], 0.01 to 0.04 µM. The figure for `CCNc1cc(Nc2cc(N)nc([C@H](C)F)n2)ncc1C(=O)NC` [Compound 11, (S)-6-((6-amino-2-(1-fluoroethyl)pyrimidin-4-yl)amino)-4-(ethylamino)-N-methylnicotinamide] is less than 0.01 µM; for `Cn1cc(-c2cnc(Nc3cc(N)nc(C(F)F)n3)cc2OCC(F)(F)F)cn1` [Compound 132, 2-(difluoromethyl)-N4-(5-(1-methyl-1H-pyrazol-4-yl)-4-(2,2,2-trifluoroethoxy)pyridin-2-yl)pyrimidine-4,6-diamine] it is less than 0.01 µM; for `C[C@@H](Oc1cc(Nc2cc(N)nc(C(F)F)n2)ncc1-c1cnn(C)c1)C(F)(F)F` [Compound 163, (R)-2-(difluoromethyl)-N4-(5-(1-methyl-1H-pyrazol-4-yl)-4-((1,1,1-trifluoropropan-2-yl)oxy)pyridin-2-yl)pyrimidine-4,6-diamine] it is less than 0.01 µM. Turning to `CNc1cc(Nc2cc(N)nc(C(F)F)n2)ncc1C(=O)NCC#N` [Compound 22, 6-((6-amino-2-(difluoromethyl)pyrimidin-4-yl)amino)-N-(cyanomethyl)-4-(methylamino)nicotinamide], the IC50 was greater than 0.04 µM.

For `CC(Oc1cc(Nc2cc(N)nc(C(F)F)n2)ncc1-c1cnn(C)c1)C(F)F` (stereo not shown) [Compound 128, 2-(difluoromethyl)-N4-(4-((1,1-difluoropropan-2-yl)oxy)-5-(1-methyl-1H-pyrazol-4-yl)pyridin-2-yl)pyrimidine-4,6-diamine], the IC50 is less than 0.01 µM. The figure for `CCOc1cc(Nc2cc(N)nc(C(F)F)n2)ncc1-c1cnn(CCNC)c1` [Compound 119, 2-(difluoromethyl)-N4-(4-ethoxy-5-(1-(2-(methylamino)ethyl)-1H-pyrazol-4-yl)pyridin-2-yl)pyrimidine-4,6-diamine] is less than 0.01 µM; for `Cn1cc(-c2cnc(Nc3cc(N)nc(C(F)F)n3)cc2O[C@H]2C[C@@H](O)C2)cn1` [Compound 107, (1s,3s)-3-((2-((6-amino-2-(difluoromethyl)pyrimidin-4-yl)amino)-5-(1-methyl-1H-pyrazol-4-yl)pyridin-4-yl)oxy)cyclobutan-1-ol] it is 0.01 to 0.04 µM; for `CNc1cc(Nc2cc(N)nc(C(F)F)n2)ncc1C(=O)NCc1ccccn1` [Compound 93, 6-((6-amino-2-(difluoromethyl)pyrimidin-4-yl)amino)-4-(methylamino)-N-(pyridin-2-ylmethyl)nicotinamide] it is 0.01 to 0.04 µM. Turning to `CCNc1cc(Nc2cc(N)nc(C(F)F)n2)ncc1C(=O)NCc1cocn1` [Compound 113, 6-((6-amino-2-(difluoromethyl)pyrimidin-4-yl)amino)-4-(ethylamino)-N-(oxazol-4-ylmethyl)nicotinamide], the IC50 was less than 0.01 µM. As for `Nc1cc(Nc2cc(NC3CC3)c(C(=O)NC34CC(CO)(C3)C4)cn2)nc(C(F)F)n1` [Compound 174, 6-((6-amino-2-(difluoromethyl)pyrimidin-4-yl)amino)-4-(cyclopropylamino)-N-(3-(hydroxymethyl)bicyclo[1.1.1]pentan-1-yl)nicotinamide], the IC50 was less than 0.01 µM. As to `CNC(=O)c1cnc(Nc2cc(N)nc(CF)n2)cc1N[C@H]1CCOC1` [Compound 36, (S)-6-((6-amino-2-(fluoromethyl)pyrimidin-4-yl)amino)-N-methyl-4-((tetrahydrofuran-3-yl)amino)nicotinamide], the IC50 was greater than 0.04 µM. As for `CNc1cc(Nc2cc(N)nc(C(F)F)n2)ncc1C(N)=O` [Compound 2, 6-((6-amino-2-(difluoromethyl)pyrimidin-4-yl)amino)-4-(methylamino)nicotinamide], the IC50 was greater than 0.04 µM.

`COc1cc(Nc2cc(N)nc(C(F)F)n2)ncc1-c1cnn([C@H]2CCNC2)c1` (single isomer, unassigned) [Compound 99, (S)-2-(difluoromethyl)-N4-(4-methoxy-5-(1-(pyrrolidin-3-yl)-1H-pyrazol-4-yl)pyridin-2-yl)pyrimidine-4,6-diamine or (R)-2-(difluoromethyl)-N4-(4-methoxy-5-(1-(pyrrolidin-3-yl)-1H-pyrazol-4-yl)pyridin-2-yl)pyrimidine-4,6-diamine]: the IC50 lay within 0.01 to 0.04 µM. The figure for `CN(C)CCn1cc(-c2cnc(Nc3cc(N)nc(C(F)F)n3)cc2OC(F)(F)F)cn1` [Compound 194, 2-(difluoromethyl)-N4-(5-(1-(2-(dimethylamino)ethyl)-1H-pyrazol-4-yl)-4-(trifluoromethoxy)pyridin-2-yl)pyrimidine-4,6-diamine] is less than 0.01 µM; for `CNc1cc(Nc2cc(N)nc(C(F)F)n2)ncc1C(=O)NC(C)C` [Compound 29, 6-((6-amino-2-(difluoromethyl)pyrimidin-4-yl)amino)-N-isopropyl-4-(methylamino)nicotinamide] it is less than 0.01 µM. In the case of `CNC(=O)c1cnc(Nc2cc(N)nc(CF)n2)cc1NC(C)CF` (single isomer, unassigned) [Compound 27, (S)-6-((6-amino-2-(fluoromethyl)pyrimidin-4-yl)amino)-4-((1-fluoropropan-2-yl)amino)-N-methylnicotinamide or (R)-6-((6-amino-2-(fluoromethyl)pyrimidin-4-yl)amino)-4-((1-fluoropropan-2-yl)amino)-N-methylnicotinamide], the IC50 fell in the range of 0.01 to 0.04 µM. `CNC(=O)c1cnc(Nc2cc(N)nc(CF)n2)cc1NC1CC1` [Compound 8, 6-((6-amino-2-(fluoromethyl)pyrimidin-4-yl)amino)-4-(cyclopropylamino)-N-methylnicotinamide]: the IC50 was less than 0.01 µM. Consider `CNC(=O)c1cnc(Nc2cc(N)nc(C(F)F)n2)cc1N[C@H](C)C(F)F` [Compound 73, (R)-6-((6-amino-2-(difluoromethyl)pyrimidin-4-yl)amino)-4-((1,1-difluoropropan-2-yl)amino)-N-methylnicotinamide], for which the IC50 is less than 0.01 µM.

By IC50 is commonly meant the midpoint of a concentration-inhibition curve.
